The target of series [1] is Beta-1 adrenergic receptor (Rattus norvegicus) (UniProt P18090). Kind of series: Displacement of [3H]-CGP-12177 from adrenergic beta1 receptor in Wistar rat cortex at 10^-5 M incubated for 60 mins by microbeta liquid scintillation counting analysis.
Series [2] has as its system Rattus norvegicus. Kind of series: Hypotensive activity in normotensive Wistar rat assessed as reduction in systolic blood pressure at 1 mg/kg, iv measured over 40th min relative to control. It counts as functional. Also on record: scale not given: the % may be the effect or the level left.
Series [3] has as its system Rattus norvegicus. The series is described as follows: Hypotensive activity in normotensive Wistar rat assessed as reduction in diastolic blood pressure at 1 mg/kg, iv measured over 40th min relative to control. It counts as functional. On the set-up: scale not given: the % may be the effect or the level left.
Series [4] deals with Rattus norvegicus. The series is described as follows: Hypotensive activity in normotensive Wistar rat assessed as reduction in systolic blood pressure at 0.5 mg/kg, iv measured over 30 mins relative to control. The format is functional. On the set-up: scale not given: the % may be the effect or the level left.
Series [5] has as its system Rattus norvegicus. The series is described as follows: Hypotensive activity in normotensive Wistar rat assessed as reduction in diastolic blood pressure at 0.5 mg/kg, iv measured over 30 mins relative to control. It counts as functional. On the set-up: scale not given: the % may be the effect or the level left.
In series [6] the test system is Rattus norvegicus. Kind of series: Hypotensive activity in normotensive Wistar rat assessed as systolic blood pressure at 0.5 mg/kg, iv measured after 5 mins (reference value: 147.7 +/- 5.9 mmHg). It counts as functional.
Series [7] deals with Rattus norvegicus. The series is described as follows: Hypotensive activity in normotensive Wistar rat assessed as systolic blood pressure at 0.5 mg/kg, iv measured after 5 mins (reference value: 116 +/- 4.6 mmHg). It counts as functional.
Series [8] concerns Rattus norvegicus. Kind of series: Hypotensive activity in normotensive Wistar rat assessed as systolic blood pressure at 0.5 mg/kg, iv measured after 10 mins (reference value: 147.7 +/- 5.9 mmHg). The format is functional.
Series [9] relates to Rattus norvegicus. The series is described as follows: Hypotensive activity in normotensive Wistar rat assessed as systolic blood pressure at 0.5 mg/kg, iv measured after 20 mins (reference value: 147.7 +/- 5.9 mmHg). The format is functional.
For series [10], the system named is Rattus norvegicus. Kind of series: Hypotensive activity in normotensive Wistar rat assessed as systolic blood pressure at 0.5 mg/kg, iv measured after 20 mins (reference value: 116 +/- 4.6 mmHg). The format is functional.
Series [11] relates to Rattus norvegicus. Kind of series: Hypotensive activity in normotensive Wistar rat assessed as systolic blood pressure at 0.5 mg/kg, iv measured after 30 mins (reference value: 116 +/- 4.6 mmHg). The format is functional.
Series [12] deals with Rattus norvegicus. The series is described as follows: Hypotensive activity in normotensive Wistar rat assessed as systolic blood pressure at 0.5 mg/kg, iv measured after 60 mins (reference value: 147.7 +/- 5.9 mmHg). It counts as functional.
Series [13] relates to Rattus norvegicus. The series is described as follows: Hypotensive activity in normotensive Wistar rat assessed as systolic blood pressure at 0.5 mg/kg, iv measured after 60 mins (reference value: 116 +/- 4.6 mmHg). The format is functional.
The subject of series [14] is Rattus norvegicus. The series is described as follows: Hypotensive activity in normotensive Wistar rat assessed as reduction in systolic blood pressure administered iv measured after 60 mins. The format is functional. Also on record: scale not given: the % may be the effect or the level left.
Series [15] in a line: (§1) Inhibition of voltage gated calcium channel in Wistar rat aorta assessed as relaxation of KCl-precontracted aortic rings by measuring reduction in calcium entry in presence of phentolamine.
The species entered for series [16] is Rattus norvegicus. The description is as §1.
The subject of series [17] is Rattus norvegicus. The series is described as follows: Hypotensive activity in normotensive Wistar rat assessed as systolic blood pressure at 2.5 mg/kg, iv measured after 5 mins (reference value: 148.5 +/- 2.6 mmHg). The format is functional.
Series [18] relates to Rattus norvegicus. The series is described as follows: Hypotensive activity in normotensive Wistar rat assessed as diastolic blood pressure at 2.5 mg/kg, iv measured after 5 mins (reference value: 116.2 +/- 1.2 mmHg). The format is functional.
The test system of series [19] is Rattus norvegicus. Kind of series: Hypotensive activity in normotensive Wistar rat assessed as systolic blood pressure at 2.5 mg/kg, iv measured after 10 mins (reference value: 148.5 +/- 2.6 mmHg). It counts as functional.
Series [20] concerns Rattus norvegicus. The series is described as follows: Hypotensive activity in normotensive Wistar rat assessed as diastolic blood pressure at 2.5 mg/kg, iv measured after 10 mins (reference value: 116.2 +/- 1.2 mmHg). It counts as functional.
The test system of series [21] is Rattus norvegicus. Kind of series: Hypotensive activity in normotensive Wistar rat assessed as diastolic blood pressure at 2.5 mg/kg, iv measured after 20 mins (reference value: 116.2 +/- 1.2 mmHg). It counts as functional.
Series [22] has as its system Rattus norvegicus. The series is described as follows: Hypotensive activity in normotensive Wistar rat assessed as systolic blood pressure at 2.5 mg/kg, iv measured after 30 mins (reference value: 148.5 +/- 2.6 mmHg). The format is functional.
Series [23] has as its system Rattus norvegicus. Kind of series: Hypotensive activity in normotensive Wistar rat assessed as diastolic blood pressure at 2.5 mg/kg, iv measured after 30 mins (reference value: 116.2 +/- 1.2 mmHg). It counts as functional.
Series [24] relates to Rattus norvegicus. Kind of series: Hypotensive activity in normotensive Wistar rat assessed as diastolic blood pressure at 2.5 mg/kg, iv measured after 60 mins (reference value: 116.2 +/- 1.2 mmHg). The format is functional.
Series [25] has as its system Rattus norvegicus. Kind of series: In vivo inhibition of beta adrenoceptor in Wistar rat assessed as reduction in isoprenaline-induced tachycardia at 1 mg/kg, iv administered as single dose 10 mins prior to isoprenaline injection. It counts as functional, organism-based.
Series [26] has as its system Rattus norvegicus. Kind of series: Hypotensive activity in normotensive Wistar rat assessed as reduction in systolic blood pressure at 1 mg/kg, iv measured after 30 to 60 mins relative to control. The format is functional. Also on record: scale not given: the % may be the effect or the level left.
Series [27] deals with Rattus norvegicus. Kind of series: Hypotensive activity in normotensive Wistar rat assessed as reduction in diastolic blood pressure at 1 mg/kg, iv measured after 30 to 60 mins relative to control. On the set-up: scale not given: the % may be the effect or the level left. It counts as functional.
Series [28] relates to Rattus norvegicus. Kind of series: Cardiotoxicity in Wistar rat assessed as effect on heart rate at 1 mg/kg, iv measured after 1 min (reference value: 320.6 +/- 8.1 bpm). To be noted: in vivo. It counts as toxicity, organism-based.
Series [29] concerns Rattus norvegicus. The series is described as follows: Cardiotoxicity in Wistar rat assessed as effect on PQ interval time at 1 mg/kg, iv measured after 1 min (reference value: 56.8 +/- 1.8 ms). The format is toxicity, organism-based. To be noted: in vivo.
The test system of series [30] is Rattus norvegicus. Kind of series: Cardiotoxicity in Wistar rat assessed as effect on QRS interval time at 1 mg/kg, iv measured after 1 min (reference value: 19.4 +/- 0.9 ms). The format is toxicity, organism-based. To be noted: in vivo.
Series [31] deals with Rattus norvegicus. Kind of series: Cardiotoxicity in Wistar rat assessed as effect on QT interval time at 1 mg/kg, iv measured after 1 min (reference value: 59.2 +/- 0.5 ms). It counts as toxicity, organism-based. To be noted: in vivo.
For series [32], the system named is Rattus norvegicus. Kind of series: Cardiotoxicity in Wistar rat assessed as effect on heart rate at 1 mg/kg, iv measured after 5 mins (reference value: 320.6 +/- 8.1 bpm). It counts as toxicity, organism-based. To be noted: in vivo.
The subject of series [33] is Rattus norvegicus. Kind of series: Cardiotoxicity in Wistar rat assessed as effect on PQ interval time at 1 mg/kg, iv measured after 5 mins (reference value: 56.8 +/- 1.8 ms). It counts as toxicity, organism-based. To be noted: in vivo.
In series [34] the test system is Rattus norvegicus. The series is described as follows: Cardiotoxicity in Wistar rat assessed as effect on QT interval time at 1 mg/kg, iv measured after 5 mins (reference value: 59.2 +/- 0.5 ms). To be noted: in vivo. The format is toxicity, organism-based.
The test system of series [35] is Rattus norvegicus. The series is described as follows: Cardiotoxicity in Wistar rat assessed as effect on QTC interval time at 1 mg/kg, iv measured after 5 mins (reference value: 137.7 +/- 2 ms). To be noted: in vivo. It counts as toxicity, organism-based.
The test system of series [36] is Rattus norvegicus. The series is described as follows: Cardiotoxicity in Wistar rat assessed as effect on heart rate at 1 mg/kg, iv measured after 15 mins (reference value: 320.6 +/- 8.1 bpm). The format is toxicity, organism-based. To be noted: in vivo, 0.25 h.
Series [37] has as its system Rattus norvegicus. The series is described as follows: Cardiotoxicity in Wistar rat assessed as effect on QRS interval time at 1 mg/kg, iv measured after 15 mins (reference value: 19.4 +/- 0.9 ms). To be noted: in vivo, 0.25 h. The format is toxicity, organism-based.
For series [38], the system named is Rattus norvegicus. The series is described as follows: Cardiotoxicity in Wistar rat assessed as effect on QTC interval time at 1 mg/kg, iv measured after 15 mins (reference value: 137.7 +/- 2 ms). It counts as toxicity, organism-based. To be noted: in vivo, 0.25 h.

SMILES strings stand for the structures. The source made the active and inactive calls. The rule behind the calls is not given here.

Chain of Beta-1 adrenergic receptor (Rattus norvegicus) (P18090 whole entry, looked up): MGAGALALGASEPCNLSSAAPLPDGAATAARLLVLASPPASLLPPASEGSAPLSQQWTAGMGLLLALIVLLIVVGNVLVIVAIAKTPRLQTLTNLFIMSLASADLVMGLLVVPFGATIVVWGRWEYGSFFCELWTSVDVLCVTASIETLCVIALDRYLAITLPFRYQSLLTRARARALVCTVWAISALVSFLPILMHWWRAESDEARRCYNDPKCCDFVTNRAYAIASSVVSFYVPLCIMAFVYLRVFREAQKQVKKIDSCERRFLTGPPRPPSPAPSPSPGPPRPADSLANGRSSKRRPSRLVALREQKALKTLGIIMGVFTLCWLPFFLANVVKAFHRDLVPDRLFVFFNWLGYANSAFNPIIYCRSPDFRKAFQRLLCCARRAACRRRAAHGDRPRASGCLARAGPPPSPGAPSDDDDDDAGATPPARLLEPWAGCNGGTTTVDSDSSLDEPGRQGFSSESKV

Take `Cl.O=c1c2ccccc2oc2cc(OCC(O)CN3CCN(c4ccccn4)CC3)ccc12` (racemic): the outcome in [1] was inactive. In addition, the Activity in series [2] and in series [3] was 8 - 10% throughout.
In the case of `Cl.O=c1c2ccccc2oc2c(OCC(O)CN3CCN(c4ccccn4)CC3)cccc12` (racemic), the Activity in [4] is 7 - 11%; in [5] it was 5 - 9%; in series [6], 146.7 mmHg; in [7], 116.3 mmHg; in series [8] it was 144 mmHg; in [9] it was 143 mmHg. The Activity in series [10] is given as 114 mmHg; in series [11] it was 110.3 mmHg; in series [12], 132 mmHg; in series [13], 105.7 mmHg.
For `COc1ccccc1CNCC(O)COc1cccc2c(=O)c3ccccc3oc12.Cl` (racemic), the Activity in series [14] amounted to 7%.
Broadly, the IC50 is the concentration at which inhibition is half-maximal. What is called inhibition is the change of the read-out against control, counted positive when it falls. For `COc1ccc(CCNCC(O)COc2cccc3c(=O)c4ccccc4oc23)cc1OC.Cl` (racemic), the IC50 in series [15] stood at 10.3 µM. In addition, the inhibition entry was “Dose-dependent effect” in series [16] and 95% in [16] (concentration not given here). For the same molecule, the Activity is listed as 143.7 mmHg in series [17]; 107 mmHg in series [18]; 135 mmHg in series [19]; 101.5 mmHg in [20]; 99.7 mmHg in series [21]; 130.7 mmHg in [22]. In addition, the Activity in series [23] was 97.7 mmHg; in series [24], 100.7 mmHg.
Turning to `CC(C)(C)NCC(O)COc1cccc2c(=O)c3ccccc3oc12.Cl` (racemic), the inhibition result in series [25] was “Active”. Further, the Activity in series [26] was 10%; in [27], 10 - 13%; in series [28], 307.2 bpm; in series [32], 295.6 bpm; in series [36], 290.6 bpm. The Time was found to be 57.6 ms in series [29]; 19.6 ms in [30]; 59.2 ms in [31]; 58 ms in series [33]; 59.2 ms in [34]; 132.2 ms in [35]. In addition, the Time in [37] is 19.2 ms; in series [38] it was 131 ms.

Source of the values: ChEMBL document CHEMBL4118148, “Design, synthesis and cardiovascular evaluation of some aminoisopropanoloxy derivatives of xanthone” (Bioorg Med Chem, 2018).
